Key:
Format in all cases: biochemical
[1] = target: T1, PDE4B: catalytic domain of human PDE4B from S152-S528 (Homo sapiens, UniProt Q07343); assay: PDE4 IC50 determination by Scintillation Proximity Assay (SPA), PDE4B catalytic domain; conditions: [3H]cAMP SPA, 30 min at 30° C.
T1 construct: The catalytic domain of human PDE4B from S152-S528; His6 (N, cleaved yes); thrombin cleavage site (N, cleaved yes); made in house; host or cells: E. coli BL21 (DE3) RIL
Protocol: (§1) IC50s were determined by Scintillation Proximity Assay (SPA). The principle of the assay is based on the fact that cAMP, the PDE4 substrate, binds weakly to Yittrium Silicate SPA beads, whereas AMP, the product of PDE4 hydrolysis binds strongly. Thus, the extent of PDE4 hydrolysis of a sample of [^3H]cAMP can be measured because only the [^3H]AMP produced by PDE4 hydrolysis will bind to the SPA beads and produce a scintillation signal.
Enzyme was stored in 50% glycerol at −20°.
(§2) In addition to the compound dilutions, each assay plate contained control wells with 1 μl of DMSO (to define 0% enzyme inhibition) or 1 μl of 200 μM roflumilast (to define 100% enzyme inhibition). Using a Beckman FX robot, 10 μl of [^3H] cAMP (Amersham TRK559) at […] in assay buffer (50 mM Tris, pH 7.5; 8.3 mM MgCl; 1.7 mM EGTA; 0.01% BSA) was transferred to each assay well. Next, 10 μl of PDE4 enzyme in assay buffer was added and the plates were shaken for 30 s. at 1000 rpm to start the cAMP hydrolysis reaction. The concentrations of enzyme used were: PDE4B, 80 ng/ml; PDE4D, 4 ng/ml; PDE4B2, 2.5 μl of 50% glycerol stock/ml; PDE4D5 0.083 μl of 50% glycerol stock/ml. Assay plates were covered and incubated for 30 min. at 30° C. Reactions were stopped by robotic addition of 10 μl of 5 mg/ml SPA beads (Amersham RPNQ0013) in 18 mM ZnSO4. The assay plates were covered with clear plastic film, centrifuged for 1 min. at 1000 RPM to settle the SPA beads, and counted using a Wallac TriLux scintillation counter. IC50's were calculated from the raw assay data by non-linear regression curve fitting using the Assay Explorer software package from MDL.

[2] = target: T2, PDE4B2: full-length human PDE4B2 isozyme (Homo sapiens, UniProt Q07343); assay: PDE4 IC50 determination by Scintillation Proximity Assay (SPA), full-length PDE4B2; conditions: cell lysate, [3H]cAMP SPA
T2 construct: made in house; host or cells: baculovirus infected insect cells (pFastBacHT)
T2 sequence (Q07343 with tags, fused parts or gaps isoform Q07343-2): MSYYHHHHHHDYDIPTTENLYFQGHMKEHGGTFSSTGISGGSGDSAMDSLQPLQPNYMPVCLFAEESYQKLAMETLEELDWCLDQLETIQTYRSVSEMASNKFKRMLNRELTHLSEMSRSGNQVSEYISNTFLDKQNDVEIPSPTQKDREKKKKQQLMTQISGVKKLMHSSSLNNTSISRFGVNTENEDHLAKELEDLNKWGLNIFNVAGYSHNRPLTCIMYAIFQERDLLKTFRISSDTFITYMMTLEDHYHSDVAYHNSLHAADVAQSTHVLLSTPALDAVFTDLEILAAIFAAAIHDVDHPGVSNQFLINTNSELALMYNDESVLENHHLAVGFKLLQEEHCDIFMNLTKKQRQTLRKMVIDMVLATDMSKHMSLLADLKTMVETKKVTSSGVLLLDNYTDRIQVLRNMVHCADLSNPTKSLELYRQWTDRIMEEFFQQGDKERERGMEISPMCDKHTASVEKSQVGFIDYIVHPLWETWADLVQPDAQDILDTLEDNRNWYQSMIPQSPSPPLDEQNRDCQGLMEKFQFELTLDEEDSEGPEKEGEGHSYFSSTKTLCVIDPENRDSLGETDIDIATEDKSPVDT
Protocol: (§3) The enzyme was not purified from the cell lysates, so enzyme concentrations were not determined. Enzyme was stored in 50% glycerol at −20°.
as §1, §2

[3] = target: T3, PDE4D5: full-length human PDE4D5 isozyme (Homo sapiens, UniProt Q08499); assay: PDE4 IC50 determination by Scintillation Proximity Assay (SPA), full-length PDE4D5; conditions: cell lysate, [3H]cAMP SPA
T3 construct: made in house; host or cells: baculovirus infected insect cells (pFastBacHT)
T3 sequence (Q08499 with tags, fused parts or gaps isoform Q08499-6): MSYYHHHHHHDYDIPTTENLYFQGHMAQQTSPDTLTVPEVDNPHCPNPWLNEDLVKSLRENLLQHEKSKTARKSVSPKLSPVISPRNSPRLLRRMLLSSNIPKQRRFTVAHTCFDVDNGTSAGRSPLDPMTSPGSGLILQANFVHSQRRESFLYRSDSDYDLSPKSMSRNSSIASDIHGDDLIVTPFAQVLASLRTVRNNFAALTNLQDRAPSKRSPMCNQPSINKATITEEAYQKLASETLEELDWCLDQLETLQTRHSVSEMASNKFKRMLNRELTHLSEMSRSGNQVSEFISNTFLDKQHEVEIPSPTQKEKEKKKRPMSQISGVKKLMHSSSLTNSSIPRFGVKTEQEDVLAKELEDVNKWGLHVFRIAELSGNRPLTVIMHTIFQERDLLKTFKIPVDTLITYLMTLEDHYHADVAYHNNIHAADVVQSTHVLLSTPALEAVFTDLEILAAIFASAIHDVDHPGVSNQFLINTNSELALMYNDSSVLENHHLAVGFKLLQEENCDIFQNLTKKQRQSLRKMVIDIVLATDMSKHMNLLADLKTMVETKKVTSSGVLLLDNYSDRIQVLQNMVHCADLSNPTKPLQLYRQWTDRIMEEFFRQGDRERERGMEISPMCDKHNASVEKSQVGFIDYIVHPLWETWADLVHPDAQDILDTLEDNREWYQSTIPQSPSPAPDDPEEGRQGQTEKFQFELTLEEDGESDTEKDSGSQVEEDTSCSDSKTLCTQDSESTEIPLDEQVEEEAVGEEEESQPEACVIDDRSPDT
Protocol: as §3, §1, §2

T1 sequence (Q07343 324-700): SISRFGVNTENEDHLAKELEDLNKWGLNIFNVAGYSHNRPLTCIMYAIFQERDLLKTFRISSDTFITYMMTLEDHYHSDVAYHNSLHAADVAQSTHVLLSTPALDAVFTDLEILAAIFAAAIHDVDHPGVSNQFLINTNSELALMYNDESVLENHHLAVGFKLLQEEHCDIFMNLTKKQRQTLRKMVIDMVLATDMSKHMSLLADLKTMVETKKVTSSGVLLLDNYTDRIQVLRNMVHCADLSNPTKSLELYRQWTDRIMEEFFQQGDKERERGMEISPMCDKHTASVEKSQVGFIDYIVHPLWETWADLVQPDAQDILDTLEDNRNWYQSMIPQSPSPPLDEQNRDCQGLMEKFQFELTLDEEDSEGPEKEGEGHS

Row | Compound | IC50 [1] [µM] | IC50 [2] [µM] | IC50 [3] [µM]
1 | CCOC(=O)c1ccc(NC(=O)n2cc(-c3ccc(OC)c(OC)c3)c3cccnc32)cc1 [Compound 33, 4-[3-(3,4-Dimethoxy-phenyl)-pyrrolo[2,3-b]pyridine-1-carbonyl]-amino-benzoic acid ethyl ester] | < 10 | < 10 | > 10
2 | COc1ccc(NC(=O)n2cc(-c3ccc(OC)c(OC)c3)c3cccnc32)cc1 [Compound 39, 3-(3,4-Dimethoxy-phenyl)-pyrrolo[2,3-b]pyridine-1-carboxylic acid (4-methoxy-phenyl)-amide] | < 10 | < 10 | > 10
3 | COc1ccc(-c2cn(C(=O)Nc3ccc(C(C)=O)cc3)c3ncccc23)cc1OC [Compound 40, 3-(3,4-Dimethoxy-phenyl)-pyrrolo[2,3-b]pyridine-1-carboxylic acid (4-acetyl-phenyl)-amide] | < 10 | < 10 | < 10
4 | c1cnc2[nH]cc(-c3ccc4c(c3)OCO4)c2c1 [Compound 90, 3-Benzo[1,3]dioxol-5-yl-1H-pyrrolo[2,3-b]pyridine] | > 10 | > 10 | > 10
5 | COc1ccc2c(c1)c(-c1ccc(OC)c(OC)c1)cn2S(=O)(=O)c1cccc2cc(C)cnc12 [Compound 94, 8-[3-(3,4-Dimethoxy-phenyl)-5-methoxy-indole-1-sulfonyl]-3-methyl-quinoline] |  | < 10 | < 10
6 | COc1ccc(-c2cn(C(=O)Nc3ccc(F)c([N+](=O)[O-])c3)c3ncccc23)cc1OC1CCCC1 [Compound 98, 3-(3-Cyclopentyloxy-4-methoxy-phenyl)-pyrrolo[2,3-b]pyridine-1-carboxylic acid (3-nitro-4-fluoro-phenyl)-amide] |  | < 10 | < 10
7 | COc1ccc(-c2cn(S(=O)(=O)c3ccccc3)c3ccccc23)cc1OC1CCCC1 [Compound 99, 1-Benzenesulfonyl-3-(3-cyclopentyloxy-4-methoxy-phenyl)-1H-indole] | < 10 | < 10 | < 10
8 | CCOc1ccc(C(=O)n2cc(-c3ccc(OC)c(OC)c3)c3cccnc32)c(OCC)c1 [Compound 111, (2,4-Diethoxy-phenyl)-[3-(3,4-dimethoxy-phenyl)-pyrrolo[2,3-b]pyridin-1-yl]-methanone] | < 10 | < 10 | < 10
9 | COc1ccc(-c2cn(C(=O)c3ccccc3Oc3ccccc3)c3ncccc23)cc1OC [Compound 118, [3-(3,4-Dimethoxy-phenyl)-pyrrolo[2,3-b]pyridin-1-yl]-(2-phenoxy-phenyl)-methanone] |  | < 10 | < 10
10 | CCOC(=O)c1ccc(C#Cc2cn(S(=O)(=O)c3ccccc3)c3ncc(-c4ccc(OC)c(OC)c4)cc23)cc1 [Compound 135, 4-[1-Benzenesulfonyl-5-(3,4-dimethoxy-phenyl)-1H-pyrrolo[2,3-b]pyridin-3-ylethynyl]-benzoic acid ethyl ester] |  | < 10 | 
11 | COc1ccc(-c2cnc3c(c2)c(C#Cc2ccccc2)cn3S(=O)(=O)c2ccccc2)cc1OC [Compound 136, 1-Benzenesulfonyl-5-(3,4-dimethoxy-phenyl)-3-phenylethynyl-1H-pyrrolo[2,3-b]pyridine] |  | < 10 | < 10
12 | COC(=O)c1cccc(C#Cc2cn(S(=O)(=O)c3ccccc3)c3ncc(-c4ccc(OC)c(OC)c4)cc23)c1 [Compound 137, 3-[1-Benzenesulfonyl-5-(3,4-dimethoxy-phenyl)-1H-pyrrolo[2,3-b]pyridin-3-ylethynyl]-benzoic acid methyl ester] |  | < 10 | < 10
13 | Cc1[nH]c2ncccc2c1-c1ccc2c(c1)OCO2 [Compound 142, 3-Benzo[1,3]dioxol-5-yl-2-methyl-1H-pyrrolo[2,3-b]pyridine] | < 10 | > 10 | > 10

Other lines, results leading:

Row | IC50 [1] [µM] | IC50 [2] [µM] | IC50 [3] [µM] | Compound
14 | < 10 | < 10 | < 10 | COc1ccc(-c2cn(S(=O)(=O)c3ccc(-c4ccccc4)cc3)c3ncccc23)cc1OC [Compound 10, 1-(Biphenyl-4-sulfonyl)-3-(3,4-dimethoxy-phenyl)-1H-pyrrolo[2,3-b]pyridine]
15 | < 10 | < 10 | < 10 | COc1ccc(-c2cn(S(=O)(=O)c3cccc4cc(C)cnc34)c3ncccc23)cc1OC [Compound 13, 8-[3-(3,4-Dimethoxy-phenyl)-pyrrolo[2,3-b]pyridine-1-sulfonyl]-3-methyl-quinoline]
16 | < 10 | < 10 | < 10 | COc1ccc(-c2cn(S(=O)(=O)c3ccc(Oc4ccccc4)cc3)c3ncccc23)cc1OC [Compound 15, 3-(3,4-Dimethoxy-phenyl)-1-(4-phenoxy-benzenesulfonyl)-1H-pyrrolo[2,3-b]pyridine]
17 | < 10 | < 10 | < 10 | COc1ccc(-c2cn(S(=O)(=O)c3ccccc3)c3ccccc23)cc1OC [Compound 19, 1-benzenesulfonyl-3-(3,4-dimethoxy-phenyl)-1H-indole]
18 | > 10 | > 10 | > 10 | COc1ccc(-c2cn(C(=O)Nc3cccc(F)c3)c3ncccc23)cc1OC [Compound 35, 3-(3,4-Dimethoxy-phenyl)-pyrrolo[2,3-b]pyridine-1-carboxylic acid(3-fluoro-phenyl)-amide]
19 | < 10 | < 10 | < 10 | COc1ncc(-c2cn(S(=O)(=O)Cc3ccccc3)c3ncccc23)cn1 [Compound 45, 3-(2-Methoxy-pyrimidin-5-yl)-1-phenylmethanesulfonyl-1H-pyrrolo[2,3-b]pyridine]
20 | < 10 | < 10 | < 10 | CSc1nccc(-c2cn(S(=O)(=O)c3cccc4cccnc34)c3ncccc23)n1 [Compound 46, 8-[3-(2-Methylsulfanyl-pyrimidin-4-yl)-pyrrolo[2,3-b]pyridine-1-sulfonyl]-quinoline]
21 | < 10 | < 10 | < 10 | COc1ccc(CC(=O)n2cc(-c3ccc(OC)c(OC)c3)c3cccnc32)cc1 [Compound 60, 1-[3-(3,4-Dimethoxy-phenyl)-pyrrolo[2,3-b]pyridin-1-yl]-2-(4-methoxy-phenyl)-ethanone-amide]
22 |  | < 10 | < 10 | COc1ccc(-c2c[nH]c3ncccc23)cc1OCc1ccccc1 [Compound 89, 3-(3-Benzyloxy-4-methoxy-phenyl)-1H-pyrrolo[2,3-b]pyridine]
23 |  | < 10 | < 10 | COc1ccc(-c2cn(C(=O)c3ccc(Cl)nc3)c3ncccc23)cc1OC [Compound 107, (6-Chloro-pyridin-3-yl)-[3-(3,4-dimethoxy-phenyl)-pyrrolo[2,3-b]pyridin-1-yl]-methanone]
24 |  | < 10 | < 10 | COc1ccc(-c2cn(C(=O)[C@@H]3C[C@H]3c3ccccc3)c3ncccc23)cc1OC [Compound 108, [3-(3,4-Dimethoxy-phenyl)-pyrrolo[2,3-b]pyridin-1-yl]-((1R,2R)-2-phenyl-trans-cyclopropyl)-methanone]
25 |  | < 10 | < 10 | CCOc1ccc2ccccc2c1C(=O)n1cc(-c2cccc(C(=O)OC)c2)c2cccnc21 [Compound 120, 3-[1-(2-Ethoxy-naphthalene-1-carbonyl)-1H-pyrrolo[2,3-b]pyridin-3-yl]-benzoic acid methyl ester]
26 |  | < 10 | < 10 | CCOc1ccc2ccccc2c1C(=O)n1cc(-c2ccc(O)c(OC)c2)c2cccnc21 [Compound 123, (2-Ethoxy-naphthalen-1-yl)-[3-(4-hydroxy-3-methoxy-phenyl)-pyrrolo[2,3-b]pyridin-1-yl]-methanone]
27 |  | < 10 | < 10 | COc1cc(-c2cn(S(=O)(=O)c3ccccc3)c3ncccc23)ccc1OCc1cc(-c2ccccc2)no1 [Compound 125, 1-Benzenesulfonyl-3-[3-methoxy-4-(3-phenyl-isoxazol-5-ylmethoxy)-phenyl]-1H-pyrrolo[2,3-b]pyridine]
28 |  | < 10 | < 10 | COc1ccc(-c2cn(S(=O)(=O)c3ccccc3)c3ncccc23)cc1O [Compound 141, 5-(1-Benzenesulfonyl-1H-pyrrolo[2,3-b]pyridin-3-yl)-2-methoxy-phenol]
